The results in this text go back to patent EP0001618A2, “Process for the preparation of di-N-oxides and their pharmaceutical use” (BAYER AG, priority 1977, dated 1979).

The test deals with E. coli Neumann. Kind of test: Subcutaneous ED100 in infected mice. The test is classed as in vivo. Particulars: Escherichia coli, sc, mice infected with E. coli Neumann, mg/kg body weight, ED100 = dose that cures 100 % of the animals, read-out: Subkutane ED100 bei infizierten Mäusen.

On to `Cc1c(C(=O)N2CN(C)CCN(C)C2)[n+]([O-])c2ccccc2[n+]1[O-]` [Beispiel 1], for which the ED100 lay within 5 to 10 mg/kg.
